Measurements as given in patent US20260132125A1, “PESTICIDALLY ACTIVE FUSED BICYCLIC HETEROAROMATIC COMPOUNDS” (priority 2022, published 2026).

How the values were obtained:
Assay type in all cases: in vivo
Plutella xylostella [1] = experiment: Example B5: activity against Plutella xylostella (diamond back moth), artificial diet, eggs; settings: 192 h, 8 days after infestation, read-out: effect in at least one of the two categories (mortality or growth inhibition)
How it was run: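 Artificial diet in 24-well plates was treated with aqueous dilutions of DMSO stocks, dried, then infested with Plutella eggs. Mortality and growth inhibition were scored against untreated samples 8 days after infestation; application rate 200 ppm.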

Myzus persicae [2] = experiment: Example B4: activity against Myzus persicae (green peach aphid), intrinsic activity; settings: 120 h, test rate 12 ppm, 5 days after infestation
How it was run: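 Compounds from 10′000 ppm DMSO stocks were mixed into sucrose solution in 24-well plates sealed with Parafilm. Aphid-infested pea seedlings were set on the membrane and the plate inverted so aphids fed through it. Mortality scored 5 days after infestation.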

Chilo suppressalis = experiment: Example B1: activity against Chilo suppressalis (striped rice stemborer), artificial diet; settings: 144 h, 200 ppm, L2 larvae, 6 days after infestation, read-out: control (at least one of mortality, anti-feedant effect, growth inhibition)
How it was run: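 First, artificial diet was treated with aqueous solutions prepared from 10'000 ppm DMSO stocks; second, after drying, L2 larvae (6-8/well) were added; third, effects were assessed at 6 days against untreated controls, counting control when any of three categories was higher.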

Myzus persicae [3] = experiment: Example B7b: Myzus persicae feeding/contact activity, eggplant leaf discs; settings: foliar, 144 h, mixed ages, 6 days after infestation
Method: Eggplant leaf discs were placed onto agar in a 24-well microtiter plate and sprayed with aqueous test solutions prepared from 10′000 ppm DMSO stock solutions. After drying, the leaf discs were infested with an aphid population of mixed ages. The samples were assessed for mortality 6 days after infestation.

Spodoptera littoralis = experiment: Example B6: activity against Spodoptera littoralis (Egyptian cotton leaf worm), cotton leaf discs; settings: foliar, 72 h, 200 ppm, L1 larvae, 3 days after infestation, read-out: control (at least one of mortality, anti-feedant effect, growth inhibition)
How it was run: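 Five L1 larvae per sprayed, dried cotton leaf disc on agar. Activity is counted when mortality, anti-feedant effect or growth inhibition exceeds the untreated sample at day 3.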

Diabrotica balteata = experiment: Example B2: activity against Diabrotica balteata (corn root worm), maize sprouts; settings: 96 h, L2 larvae, 4 days after infestation, read-out: effect in at least one of the two categories (mortality or growth inhibition)
How it was run: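 Maize sprouts on agar were sprayed with aqueous test solutions made from 10′000 ppm DMSO stocks, dried, then infested with 6–10 L2 larvae per well. Mortality and growth inhibition were scored against untreated samples 4 days after infestation, at an application rate of 200 ppm.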

Pseudoplusia includens = experiment: Example B9: Pseudoplusia includens (soybean looper), larvicide, feeding/contact, soybean plants; settings: Chrysodeixis includens; for percent effect (mortality or growth inhibition) at 50 ppm: 120 h, L2 larvae, 5 days after infestation, read-out: effect in at least one of the two categories (mortality or growth inhibition)
Method: Soybean plants were treated in a spray chamber, cut off and placed into petri dishes containing wet filter paper. 1d after application leaves were infested with 5 L2 larvae and covered with a fabric filter and plastic lids. 5 days after infestation the samples were assessed for mortality and growth inhibition. The following compounds gave an effect of at least 80% in at least one of the two categories (mortality or growth inhibition) at an application rate of 50 ppm: […]

Euschistus heros = experiment: Example B3: activity against Euschistus heros (neotropical brown stink bug), soybean leaves; settings: for percent effect (mortality or growth inhibition) at 200 ppm: 120 h, N2 nymphs, 5 days after infestation, read-out: effect in at least one of the two categories (mortality or growth inhibition)
Method: Soybean leaves on agar in 24-well microtiter plates were sprayed with aqueous test solutions prepared from 10′000 ppm DMSO stock solutions. After drying the leaves were infested with N2 nymphs. The samples were assessed for mortality and growth inhibition in comparison to untreated samples 5 days after infestation. The following compounds gave an effect of at least 80% in at least one of the two categories (mortality or growth inhibition) at an application rate of 200 ppm: […]

Plutella xylostella [4] = experiment: B14b: Plutella xylostella (diamond back moth), larvicide L3, feeding/contact, Chinese cabbage
Source text: Activity of compounds P5, P17 and P21 according to the preparatory examples and of a compound from WO 21/083936 against Spodoptera littoralis (Example B6 above), Chilo suppressalis (Example B1 above), Diabrotica balteata (Example B14a below), Plutella xylostella (Example B14b below) and Pseudoplusia includens (Example B9 above) is summarized in Table B14. B14a: Diabrotica balteata (Corn root worm). Larvicide, feeding/contact 3 Corn seedlings were placed on wetted filter paper in plastic cups, and 3 ml of diluted test solutions were pipetted onto them. The cups were infested with 10 L2 larvae and checked for mortality and growth regulation 5 days after treatment. B14b: Plutella xylostella (Diamond back moth). Larvicide L3, feeding/contact Chinese cabbage plants were sprayed with diluted test solutions in an application chamber. Cut off leaves were placed into petri dishes with wetted filter paper and infested 1 day after application with 10 L3 larvae. Samples were assessed 4 days after infestation for mortality and growth regulation.

SMILES | percent effect (mortality or growth inhibition) at 200 ppm (Plutella xylostella [1]) | mortality at 12 ppm (Myzus persicae [2]) | percent control (mortality, anti-feedant effect or growth inhibition) at 200 ppm (Chilo suppressalis) | mortality at 200 ppm (Myzus persicae [3]) | percent control (mortality, anti-feedant effect or growth inhibition) at 200 ppm (Spodoptera littoralis) | percent effect (mortality or growth inhibition) at 200 ppm (Diabrotica balteata) | percent effect (mortality or growth inhibition) at 50 ppm (Pseudoplusia includens) | percent effect (mortality or growth inhibition) at 200 ppm (Euschistus heros) | mortality at 0.8 ppm (Plutella xylostella [4]) | mortality at 200 ppm (Euschistus heros) | mortality at 3 ppm (Pseudoplusia includens; Pseudoplusia includens) | mortality at 0.8 ppm (Pseudoplusia includens; Pseudoplusia includens, 0.8 ppm) | mortality at 3 ppm (Plutella xylostella [4]; 3 ppm)
C[C@H](Nc1ncnc2c(C(F)(F)F)cc(Cl)cc12)c1ncnn1-c1cc(C(=O)N(C)C)ncn1 [Compound P30, 6-[5-[(1S)-1-[[6-chloro-8-(trifluoromethyl)quinazolin-4-yl]amino]ethyl]-1,2,4-triazol-1-yl]-N,N-dimethyl-pyrimidine-4-carboxamide] | ≥ 80% | ≥ 80% | ≥ 80% | ≥ 80% | ≥ 80% | ≥ 80% | ≥ 80% | – | – | – | – | – | –
CCN(C)C(=O)c1cc(-n2ncnc2[C@H](C)Nc2ncnc3c(C(F)(F)F)cc(Cl)cc23)ncn1 [Compound P31, 6-[5-[(1S)-1-[[6-chloro-8-(trifluoromethyl)quinazolin-4-yl]amino]ethyl]-1,2,4-triazol-1-yl]-N-ethyl-N-methyl-pyrimidine-4-carboxamide] | ≥ 80% | ≥ 80% | ≥ 80% | ≥ 80% | ≥ 80% | ≥ 80% | ≥ 80% | – | – | – | – | – | –
C[C@H](Nc1ncnc2c(C(F)(F)F)cc(Cl)cc12)c1ncnn1-c1cc(C(=O)NCC#N)ncn1 [Compound P38, 6-[5-[(1S)-1-[[6-chloro-8-(trifluoromethyl)quinazolin-4-yl]amino]ethyl]-1,2,4-triazol-1-yl]-N-(cyanomethyl)pyrimidine-4-carboxamide] | ≥ 80% | ≥ 80% | ≥ 80% | ≥ 80% | ≥ 80% | ≥ 80% | ≥ 80% | ≥ 80% | – | – | – | – | –
C[C@@H](c1ncnn1-c1cc(C(=O)NCC#N)ncn1)N(C)c1ncnc2c(C(F)(F)F)cc(Cl)cc12 [Compound P52, 6-[5-[(1S)-1-[[6-chloro-8-(trifluoromethyl)quinazolin-4-yl]-methyl-amino]ethyl]-1,2,4-triazol-1-yl]-N-(cyanomethyl)pyrimidine-4-carboxamide] | ≥ 80% | ≥ 80% | ≥ 80% | ≥ 80% | ≥ 80% | ≥ 80% | ≥ 80% | ≥ 80% | – | – | – | – | –
CCN(C)C(=O)c1cc(-n2ncnc2[C@H](C)N(C)c2ncnc3c(C(F)(F)F)cc(Cl)cc23)ncn1 [Compound P55, 6-[5-[(1S)-1-[[6-chloro-8-(trifluoromethyl)quinazolin-4-yl]-methyl-amino]ethyl]-1,2,4-triazol-1-yl]-N-ethyl-N-methyl-pyrimidine-4-carboxamide] | ≥ 80% | ≥ 80% | ≥ 80% | ≥ 80% | ≥ 80% | ≥ 80% | ≥ 80% | ≥ 80% | – | – | – | – | –
C[C@H](Nc1ncnc2c(S(=O)(=O)C(F)(F)F)cc(Cl)cc12)c1ncnn1-c1cc(C(N)=O)ncn1 [Compound P59, 6-[5-[(1S)-1-[[6-chloro-8-(trifluoromethylsulfonyl)quinazolin-4-yl]amino]ethyl]-1,2,4-triazol-1-yl]pyrimidine-4-carboxamide] | ≥ 80% | ≥ 80% | ≥ 80% | ≥ 80% | ≥ 80% | ≥ 80% | – | ≥ 80% | – | – | – | – | –
CNC(=O)c1cc(-n2ncnc2[C@H](C)N(C)c2ncnc3c(S(=O)(=O)C(F)(F)F)cc(Cl)cc23)ncn1 [Compound P61] | ≥ 80% | ≥ 80% | ≥ 80% | ≥ 80% | ≥ 80% | ≥ 80% | ≥ 80% | ≥ 80% | – | – | – | – | –
C[C@H](Nc1ncnc2c(C(F)(F)F)cc(Cl)cc12)c1ncnn1-c1cc(C(=O)N(C)C2CC2)ncn1 [Compound P63, 6-[5-[(1S)-1-[[6-chloro-8-(trifluoromethyl)quinazolin-4-yl]amino]ethyl]-1,2,4-triazol-1-yl]-N-cyclopropyl-N-methyl-pyrimidine-4-carboxamide] | ≥ 80% | ≥ 80% | ≥ 80% | ≥ 80% | ≥ 80% | ≥ 80% | – | ≥ 80% | – | – | – | – | –
C[C@@H](c1ncnn1-c1cc(C(N)=O)ncn1)N(C)c1ncnc2c(S(=O)(=O)C(F)(F)F)cc(Cl)cc12 [Compound P67, 6-[5-[(1S)-1-[[6-chloro-8-(trifluoromethylsulfonyl)quinazolin-4-yl]-methyl-amino]ethyl]-1,2,4-triazol-1-yl]pyrimidine-4-carboxamide] | ≥ 80% | ≥ 80% | ≥ 80% | ≥ 80% | ≥ 80% | ≥ 80% | – | ≥ 80% | – | – | – | – | –
C[C@@H](c1ncnn1-c1cc(C(=O)N(C)C)ncn1)N(C)c1ncnc2c(C(F)(F)F)cc(Cl)cc12 [Compound P82, 6-[5-[(1S)-1-[[6-chloro-8-(trifluoromethyl)quinazolin-4-yl]-methyl-amino]ethyl]-1,2,4-triazol-1-yl]-N,N-dimethyl-pyrimidine-4-carboxamide] | ≥ 80% | ≥ 80% | – | ≥ 80% | ≥ 80% | ≥ 80% | – | – | – | – | – | – | –
C[C@H](Nc1ncnc2c(Cl)cc(C(F)(F)F)cc12)c1ncnn1-c1ncccn1 [WO 21/083936 P.18, reference compound] | – | – | – | – | – | – | – | – | 65% | 0% | 40% | – | –
C[C@H](Nc1ncnc2c(C(F)(F)F)cc(Cl)cc12)c1ncnn1-c1ncccn1 [WO 21/083936 P.24, reference compound] | – | – | – | – | – | – | – | – | 5% | 0% | – | 0% | –
CC(Nc1ncnc2c(Br)cc(Br)cc12)c1ncnn1-c1ncccn1 (stereo not drawn) [WO 21/083936 P.29, reference compound] | – | – | – | – | – | – | – | – | – | 0% | 30% | – | 60%
